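Where inhibition never reached the appropriate level, the endpoint shown equals the highest concentration tested. Otherwise, values were interpolated linearly from a five-concentration, 48-hour dose response in 96-well plates. GI50: concentration for 50% inhibition of growth.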 Active and inactive are the calls of the source. Cut-off read from the data, not from the text of the source: active = GI50 up to about 1.1 µM and inactive = higher.
Legend:
Test in all cases: growth of human tumour cells (NCI), 48 h
786-0 = tested on: 786-0
A549 = tested on: A549
COLO 205 = tested on: COLO 205
HL-60 = tested on: HL-60
HT-29 = tested on: HT-29
Hs-578T = tested on: Hs-578T
MDA-MB-435 = tested on: MDA-MB-435
NCI-H460 = tested on: NCI-H460
SF-268 = tested on: SF-268
SF-295 = tested on: SF-295
SK-MEL-28 = tested on: SK-MEL-28
SK-MEL-5 = tested on: SK-MEL-5
SK-OV-3 = tested on: SK-OV-3
SNB-78 = tested on: SNB-78
SR = tested on: SR
T47D = tested on: T47D
TK-10 = tested on: TK-10
UACC-257 = tested on: UACC-257
UO-31 = tested on: UO-31
A498 = tested on: A498

Measured: GI50

CSc1ncnc2c1CCN2
inactive: 786-0 > 10 µM | A549 > 10 µM | COLO 205 8.85 µM | HL-60 4.29 µM | HT-29 7.96 µM | Hs-578T 4.51 µM | MDA-MB-435 2.21 µM | NCI-H460 5.37 µM | SF-268 > 10 µM | SF-295 6.81 µM | SK-MEL-28 > 10 µM | SK-MEL-5 2.92 µM | SK-OV-3 > 10 µM | SNB-78 > 100 µM | SR 1.78 µM | T47D > 10 µM | TK-10 > 10 µM | UACC-257 3.83 µM | UO-31 50.6 µM

COC(=O)C(=O)C(C(=O)OC)C(=O)C(=O)Nc1cc(Cl)c(C)cc1S(=O)(=O)O (stereo not drawn)
inactive: 786-0 > 100 µM | A498 > 100 µM | A549 > 100 µM | COLO 205 > 100 µM | HL-60 > 100 µM | HT-29 > 100 µM | NCI-H460 > 100 µM | SF-268 > 100 µM | SF-295 > 100 µM | SK-MEL-28 > 100 µM | SK-MEL-5 > 100 µM | SK-OV-3 > 100 µM | SNB-78 > 100 µM | SR > 100 µM | TK-10 > 100 µM | UACC-257 > 100 µM | UO-31 > 100 µM

COC(=O)C12C3C4C5(C(=O)OC)C(C1C35C(=O)N(C(C)C)C(C)C)C42C(=O)N(C(C)C)C(C)C (stereo not drawn)
inactive: 786-0 > 50 µM | A498 > 50 µM | A549 > 45.9 µM | COLO 205 > 50 µM | HL-60 > 36.3 µM | HT-29 > 50 µM | NCI-H460 > 37.6 µM | SF-268 > 50 µM | SF-295 > 50 µM | SK-MEL-28 > 50 µM | SK-MEL-5 > 50 µM | SK-OV-3 > 50 µM | SNB-78 > 50 µM | SR > 50 µM | TK-10 > 50 µM | UACC-257 > 50 µM | UO-31 > 50 µM

COc1cc2ccc(=O)oc2cc1O [SCOPOLETIN]
inactive: 786-0 > 100 µM | A498 80.4 µM | A549 40.1 µM | COLO 205 142 µM | HL-60 34.8 µM | HT-29 161 µM | Hs-578T > 100 µM | MDA-MB-435 > 100 µM | NCI-H460 18.4 µM | SF-268 92.3 µM | SF-295 19.7 µM | SK-MEL-28 73.3 µM | SK-MEL-5 78 µM | SK-OV-3 94.2 µM | SNB-78 307 µM | SR > 100 µM | T47D > 100 µM | TK-10 > 100 µM | UACC-257 71.9 µM | UO-31 38 µM

Reference: ChEMBL document CHEMBL1201862, “PubChem BioAssay data set” (2004)
